{"source": "patent US20230104936A1", "about": "“TRPML MODULATORS” (Casma Therapeutics, Inc., priority 2019, published 2023)"}
{"test_system": "TFEB", "test": "TFEB nuclear translocation assay, HeLa wt cells", "format": "cell-based", "conditions": "Homo sapiens, HeLa, 2 h, 2 hrs compound treatment, Table 1 does not say HeLa wt or TRPML1 KO", "summary_of_the_method": "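Read-out is the ratio of TFEB immunofluorescence in the nucleus to that in a ring just outside it, measured by automated imaging. HeLa wt cells received compounds for 2 hrs at 37° C before fixation and staining; AC50 values come from this ratio.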", "units": {"AC50": "µM"}}
{"smiles": "O=S(=O)(Nc1ccccc1N1CCC(c2ccc(F)cc2F)CC1)c1ccc(S(=O)(=O)C(F)(F)F)cc1", "note": "[Compound A-173, N-{2-[4-(2,4-difluorophenyl)piperidin-1-yl]phenyl}-4-trifluoromethanesulfonylbenzene-1-sulfonamide]", "AC50": "≤ 2"}
{"smiles": "O=S(=O)(Nc1ccccc1N1CCN(c2ccc(F)cc2F)CC1)c1ccc(S(=O)(=O)C(F)(F)F)cc1", "note": "[Compound A-174, N-{2-[4-(2,4-difluorophenyl)piperazin-1-yl]phenyl}-4-trifluoromethanesulfonylbenzene-1-sulfonamide]", "AC50": "2.01 to 8"}
{"smiles": "CN(C)S(=O)(=O)c1ccc(S(=O)(=O)Nc2ccccc2N2CCC(C#N)(c3ccc(F)cc3F)CC2)cc1", "note": "[Compound A-175, N4-{2-[4-cyano-4-(2,4-difluorophenyl)piperidin-1-yl]phenyl}-N1,N1-dimethylbenzene-1,4-disulfonamide]", "AC50": "≤ 2"}
{"smiles": "CP(C)(=O)c1ccc(S(=O)(=O)Nc2ccccc2N2CCC(c3ccc(F)cc3F)CC2)cc1", "note": "[Compound A-176, N-{2-[4-(2,4-difluorophenyl)piperidin-1-yl]phenyl}-4-(dimethylphosphoryl)benzene-1-sulfonamide]", "AC50": "≥ 10"}
{"smiles": "CP(C)(=O)c1ccc(S(=O)(=O)Nc2ccccc2N2CCC(c3c(F)cccc3F)CC2)cc1", "note": "[Compound A-177, N-{2-[4-(2,6-difluorophenyl)piperidin-1-yl]phenyl}-4-(dimethylphosphoryl)benzene-1-sulfonamide]", "AC50": "≥ 10"}
{"smiles": "O=S(=O)(Nc1ccccc1N1CCN(c2ncc(Cl)cc2F)CC1)c1ccc(S(=O)(=O)C(F)(F)F)cc1", "note": "[Compound A-178, N-{2-[4-(5-chloro-3-fluoropyridin-2-yl)piperazin-1-yl]phenyl}-4-trifluoromethanesulfonylbenzene-1-sulfonamide]", "AC50": "≤ 2"}
{"smiles": "CN(C)S(=O)(=O)c1ccc(S(=O)(=O)Nc2ccccc2N2CCN(C34CC(C3)C4)CC2)cc1", "note": "[Compound A-179, N4-[2-(4-{bicyclo[1.1.1]pentan-1-yl}piperazin-1-yl)phenyl]-N1,N1-dimethylbenzene-1,4-disulfonamide]", "AC50": "≤ 2"}
{"smiles": "COc1ccc(S(=O)(=O)Nc2ccccc2-c2ncc(F)cc2F)cc1", "note": "[Compound A-180, N-(2-(3,5-difluoropyridin-2-yl)phenyl)-4-methoxybenzenesulfonamide]", "AC50": "8.01 to 9.99"}
{"smiles": "CN(C)S(=O)(=O)c1ccc([S+]([O-])c2ccccc2N2CCC(c3ccc(Cl)cc3F)CC2)cc1", "note": "(centres unmarked) [Compound A-181, 4-((2-(4-(4-chloro-2-fluorophenyl)piperidin-1-yl)phenyl)sulfinyl)-N,N-dimethylbenzenesulfonamide]", "AC50": "2.01 to 8"}
{"smiles": "CN(C)S(=O)(=O)c1ccc(S(=O)(=O)Nc2ccccc2N2CCC(C)(c3ccccc3Cl)CC2)cc1", "note": "[Compound A-183, N4-{2-[4-(2-chlorophenyl)-4-methylpiperidin-1-yl]phenyl}-N1,N1-dimethylbenzene-1,4-disulfonamide]", "AC50": "≤ 2"}
{"smiles": "CN(C)S(=O)(=O)c1ccc(S(=O)(=O)Nc2ccccc2N2CCC(C)(c3ccc(Cl)cc3)CC2)cc1", "note": "[Compound A-184, N4-{2-[4-(4-chlorophenyl)-4-methylpiperidin-1-yl]phenyl}-N1,N1-dimethylbenzene-1,4-disulfonamide]", "AC50": "≤ 2"}
{"smiles": "O=S(=O)(Nc1ccccc1N1CCC(c2ccc(F)cc2F)CC1)c1ccc(S(=O)(=O)C(F)F)cc1", "note": "[Compound A-185, 4-difluoromethanesulfonyl-N-{2-[4-(2,4-difluorophenyl)piperidin-1-yl]phenyl}benzene-1-sulfonamide]", "AC50": "≤ 2"}
{"smiles": "COc1ccc(S(=O)(=O)Nc2ccccc2Oc2ccc(F)cc2F)cc1", "note": "[Compound A-186, N-(2-(2,4-difluorophenoxy)phenyl)-4-methoxybenzenesulfonamide]", "AC50": "≥ 10"}
{"smiles": "COc1ccc(S(=O)(=O)Nc2ccccc2OCc2ccc(F)cc2F)cc1", "note": "[Compound A-187, N-(2-((2,4-difluorobenzyl)oxy)phenyl)-4-methoxybenzenesulfonamide]", "AC50": "≥ 10"}
